Data from ChEMBL document CHEMBL1201862, “PubChem BioAssay data set” (2004).
Active and inactive are the calls of the source.

What was measured:
[1] = molecular target: Glyceraldehyde-3-phosphate dehydrogenase (Homo sapiens, UniProt P04406)
[2] = molecular target: T1, Alkaline phosphatase, tissue-nonspecific isozyme (Homo sapiens, UniProt P05186); test: human TNAP enzyme inhibitors, SAR follow-up, biochemical, luminescent, dose response (AID 1056)
T1 sequence (P05186 whole entry): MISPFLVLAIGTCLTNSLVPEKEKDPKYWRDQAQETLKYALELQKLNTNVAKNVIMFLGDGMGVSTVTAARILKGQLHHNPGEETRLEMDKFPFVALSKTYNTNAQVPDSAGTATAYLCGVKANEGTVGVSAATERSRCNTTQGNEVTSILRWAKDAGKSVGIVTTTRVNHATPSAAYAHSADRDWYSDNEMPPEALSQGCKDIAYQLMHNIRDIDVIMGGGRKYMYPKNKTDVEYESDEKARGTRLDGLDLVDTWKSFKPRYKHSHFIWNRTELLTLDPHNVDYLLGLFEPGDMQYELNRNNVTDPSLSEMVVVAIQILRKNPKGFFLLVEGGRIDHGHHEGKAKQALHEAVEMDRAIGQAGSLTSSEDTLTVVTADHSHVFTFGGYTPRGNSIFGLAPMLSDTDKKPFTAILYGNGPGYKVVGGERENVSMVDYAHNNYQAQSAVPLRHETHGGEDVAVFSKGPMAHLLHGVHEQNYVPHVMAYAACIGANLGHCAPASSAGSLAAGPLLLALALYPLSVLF

[3] = cytotoxicity in HEK-293T cells, dose response, cytotoxicity control for TCR NF-kB inhibitor project, luminescence, T-cell screen hits (AID 489026); type: functional, cell-based;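 also: cells exposed to compound about 14 hours before the viability readout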
[4] = molecular target: T2, Low molecular weight phosphotyrosine protein phosphatase (Homo sapiens, UniProt P24666); type: functional; settings: read-out: IC50_Mean;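 also: Dose-response confirmation assay measuring inhibition of LMPTP enzyme activity by fluorescence intensity read-out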
T2 sequence (P24666 whole entry): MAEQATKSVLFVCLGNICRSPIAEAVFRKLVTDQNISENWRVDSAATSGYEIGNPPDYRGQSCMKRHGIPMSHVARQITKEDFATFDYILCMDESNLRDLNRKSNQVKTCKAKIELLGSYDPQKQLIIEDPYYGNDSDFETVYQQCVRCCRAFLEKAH

[5] = HEp-2 cell cytotoxicity, dose response, cytotoxicity control for RSV inhibitor project, HTS (AID 2410); type: functional; settings: human respiratory syncytial virus
[6] = cells
[7] = molecular target: T3, Sentrin-specific protease 8 (Homo sapiens, UniProt Q96LD8); test: SENP8 protease inhibitors, SAR follow-up, biochemical, luminescence (AID 504501); type: functional
T3 sequence (Q96LD8 whole entry): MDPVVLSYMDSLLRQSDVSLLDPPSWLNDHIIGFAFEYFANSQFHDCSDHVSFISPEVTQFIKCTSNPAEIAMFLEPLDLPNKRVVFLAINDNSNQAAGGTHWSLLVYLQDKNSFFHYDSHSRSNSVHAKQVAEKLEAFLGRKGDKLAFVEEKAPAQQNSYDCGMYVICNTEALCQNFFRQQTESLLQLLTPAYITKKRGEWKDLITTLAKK

[8] = molecular target: T4, Sentrin-specific protease 7 (Homo sapiens, UniProt Q9BQF6); type: functional;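 also: Luminescence-based dose-response confirmation of ultra-high-throughput screening hits, measuring inhibition of SENP7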
T4 sequence (Q9BQF6 whole entry): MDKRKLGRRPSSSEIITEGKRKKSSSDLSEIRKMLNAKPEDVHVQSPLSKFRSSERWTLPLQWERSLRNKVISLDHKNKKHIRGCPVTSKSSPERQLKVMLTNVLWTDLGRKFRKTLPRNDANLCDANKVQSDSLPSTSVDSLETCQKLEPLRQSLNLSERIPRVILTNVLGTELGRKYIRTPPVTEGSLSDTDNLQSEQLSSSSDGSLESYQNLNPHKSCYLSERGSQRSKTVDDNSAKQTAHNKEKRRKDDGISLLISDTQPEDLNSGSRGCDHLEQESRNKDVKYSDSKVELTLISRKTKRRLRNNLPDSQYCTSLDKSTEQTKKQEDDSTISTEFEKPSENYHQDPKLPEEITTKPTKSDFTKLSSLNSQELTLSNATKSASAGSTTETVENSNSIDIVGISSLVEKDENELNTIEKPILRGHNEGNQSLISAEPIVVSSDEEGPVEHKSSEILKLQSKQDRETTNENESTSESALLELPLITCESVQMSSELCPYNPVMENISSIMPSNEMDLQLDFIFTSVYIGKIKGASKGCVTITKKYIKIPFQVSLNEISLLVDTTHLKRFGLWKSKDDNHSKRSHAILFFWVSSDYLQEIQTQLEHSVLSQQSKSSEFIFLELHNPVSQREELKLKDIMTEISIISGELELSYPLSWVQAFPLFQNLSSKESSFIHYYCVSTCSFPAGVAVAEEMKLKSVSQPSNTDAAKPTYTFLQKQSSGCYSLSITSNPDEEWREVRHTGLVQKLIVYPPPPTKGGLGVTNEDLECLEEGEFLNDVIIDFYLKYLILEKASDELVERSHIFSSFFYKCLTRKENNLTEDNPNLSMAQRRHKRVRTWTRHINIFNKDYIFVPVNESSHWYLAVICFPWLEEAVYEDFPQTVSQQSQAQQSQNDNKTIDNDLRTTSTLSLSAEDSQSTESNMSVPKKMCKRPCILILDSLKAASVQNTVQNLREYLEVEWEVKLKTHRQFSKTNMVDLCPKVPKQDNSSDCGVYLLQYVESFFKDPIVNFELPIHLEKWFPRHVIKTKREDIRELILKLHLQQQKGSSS

[9] = molecular target: T3, Sentrin-specific protease 8; type: functional
[10] = molecular target: T5, Caspase-3 (Homo sapiens, UniProt P42574); test: SAR Analysis of small molecule inhibitors of Sentrin-specific proteases (SENPs) using a Caspase-3 Selectivity assay. [Related pubchem assays (depositor defined):AID2540, AID2599, AID434973, AID489001]; type: functional
T5 sequence (P42574 whole entry): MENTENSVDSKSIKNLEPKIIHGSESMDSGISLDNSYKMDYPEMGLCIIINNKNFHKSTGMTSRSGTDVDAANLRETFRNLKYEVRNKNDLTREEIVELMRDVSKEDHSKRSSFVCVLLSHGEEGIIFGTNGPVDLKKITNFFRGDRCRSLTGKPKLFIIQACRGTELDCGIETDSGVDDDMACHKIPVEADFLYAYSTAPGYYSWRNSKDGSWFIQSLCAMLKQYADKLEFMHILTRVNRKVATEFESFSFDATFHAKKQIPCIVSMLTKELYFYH

[11] = molecular target: T5, Caspase-3; type: functional
[12] = molecular target: T6, Sentrin-specific protease 6 (Homo sapiens, UniProt Q9GZR1); test: SAR Analysis of small molecule inhibitors of Sentrin-specific protease 6 (SENP6) using a Luminescent assay. [Related pubchem assays (depositor defined):AID2582, AID2599]; type: functional
T6 sequence (Q9GZR1 whole entry): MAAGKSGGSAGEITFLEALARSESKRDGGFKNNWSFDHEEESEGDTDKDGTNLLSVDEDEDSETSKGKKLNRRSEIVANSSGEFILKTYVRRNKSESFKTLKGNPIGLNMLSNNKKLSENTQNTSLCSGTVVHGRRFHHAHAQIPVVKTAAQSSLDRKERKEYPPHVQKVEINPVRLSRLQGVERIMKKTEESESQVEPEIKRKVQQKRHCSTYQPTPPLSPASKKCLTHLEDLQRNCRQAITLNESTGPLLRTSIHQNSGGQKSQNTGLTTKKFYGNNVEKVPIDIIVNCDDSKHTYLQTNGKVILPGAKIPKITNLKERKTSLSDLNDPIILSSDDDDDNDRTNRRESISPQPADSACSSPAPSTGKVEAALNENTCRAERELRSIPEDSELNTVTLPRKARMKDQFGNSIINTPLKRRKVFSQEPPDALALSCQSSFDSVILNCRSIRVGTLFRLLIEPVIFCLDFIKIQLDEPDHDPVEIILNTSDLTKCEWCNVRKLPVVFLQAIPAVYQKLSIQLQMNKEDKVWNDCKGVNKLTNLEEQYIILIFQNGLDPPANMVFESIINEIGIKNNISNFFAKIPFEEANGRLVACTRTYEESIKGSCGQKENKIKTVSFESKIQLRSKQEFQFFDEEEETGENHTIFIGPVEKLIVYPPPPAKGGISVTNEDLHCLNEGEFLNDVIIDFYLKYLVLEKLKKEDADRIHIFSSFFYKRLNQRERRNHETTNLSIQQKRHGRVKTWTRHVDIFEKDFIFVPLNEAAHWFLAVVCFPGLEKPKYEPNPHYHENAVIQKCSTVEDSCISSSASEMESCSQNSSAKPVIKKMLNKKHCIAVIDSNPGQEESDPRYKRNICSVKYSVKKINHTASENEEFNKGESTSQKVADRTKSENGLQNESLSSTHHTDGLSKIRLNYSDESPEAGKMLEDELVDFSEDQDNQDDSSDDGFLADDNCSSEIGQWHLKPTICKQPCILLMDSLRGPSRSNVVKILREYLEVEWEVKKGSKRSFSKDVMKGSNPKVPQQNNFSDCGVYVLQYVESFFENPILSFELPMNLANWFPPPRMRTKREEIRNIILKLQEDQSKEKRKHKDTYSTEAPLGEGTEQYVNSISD

[13] = molecular target: T6, Sentrin-specific protease 6; type: functional
[14] = molecular target: T4, Sentrin-specific protease 7; test: SENP7 protease inhibitors, SAR follow-up, biochemical, luminescence (AID 504497); type: functional
[15] = molecular target: Cytochrome P450 3A4 (Homo sapiens, UniProt P08684);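 also: CYP3A4 tested as one member of a cytochrome P450 panel screen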
[16] = system: Escherichia coli; test: microbe, parasite or virus in culture
[17] = system: BJ; test: cells; type: functional, cell-based; settings: Homo sapiens, read-out: EC50
[18] = system: BJ; test: cytotoxicity toward BJ-TERT fibroblasts, dose response, cell-based, RAS-independent, luminescence (AID 1933); type: functional; settings: Homo sapiens
[19] = cytotoxicity toward DRD oncogenic fibroblasts, dose response, cell-based, non-viral oncogenic, luminescence (AID 1934); type: functional; settings: Homo sapiens
[20] = growth suppression of beta-catenin-knockout colon cells, dose response, cell-based, HCT116, human colon tumor (AID 1045); type: functional;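 also: HCT116 colon tumor cells with beta catenin knocked out; cells exposed to compound for 60 hours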
[21] = system: BJ; test: cytotoxicity toward BJ-TERT-LT-ST fibroblasts, dose response, cell-based, RAS-independent, luminescence (AID 1935); type: functional; settings: Homo sapiens;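 also: BJ fibroblasts immortalized with TERT plus LT and ST oncogenes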
[22] = growth suppression of PTEN-null colon cells, dose response, cell-based, HCT116 PTEN knockout (AID 1047); type: functional;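 also: HCT116 colon tumor cells with PTEN knocked out; cells exposed to compound for 60 hours before readout; potency for loss of cell viability measured by luminescence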
[23] = molecular target: Paired box protein Pax-8 (Homo sapiens, UniProt Q06710); test: inhibitors of PAX8-driven TPO luciferase reporter, dose response, RMG-I cells, cherry-pick (AID 687027); type: functional, cell-based;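 also: luciferase reporter driven by Pax8 target thyroperoxidase promoter measured by SteadyGlo luminescence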
[24] = molecular target: T7, Heat shock factor protein 1 (Mus musculus, UniProt P38532); test: inhibition of MG132-induced HSE-luciferase signal, confirmation, cell-based, NIH3T3, luminescence, dose retest (AID 2382); type: functional;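 also: NIH3T3 fibroblasts with HSF1-driven luciferase reporter stressed by proteasome inhibitor MG132; luminescence from HSF1-driven luciferase expression after 8 hours of MG132 stress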
T7 sequence (P38532 whole entry): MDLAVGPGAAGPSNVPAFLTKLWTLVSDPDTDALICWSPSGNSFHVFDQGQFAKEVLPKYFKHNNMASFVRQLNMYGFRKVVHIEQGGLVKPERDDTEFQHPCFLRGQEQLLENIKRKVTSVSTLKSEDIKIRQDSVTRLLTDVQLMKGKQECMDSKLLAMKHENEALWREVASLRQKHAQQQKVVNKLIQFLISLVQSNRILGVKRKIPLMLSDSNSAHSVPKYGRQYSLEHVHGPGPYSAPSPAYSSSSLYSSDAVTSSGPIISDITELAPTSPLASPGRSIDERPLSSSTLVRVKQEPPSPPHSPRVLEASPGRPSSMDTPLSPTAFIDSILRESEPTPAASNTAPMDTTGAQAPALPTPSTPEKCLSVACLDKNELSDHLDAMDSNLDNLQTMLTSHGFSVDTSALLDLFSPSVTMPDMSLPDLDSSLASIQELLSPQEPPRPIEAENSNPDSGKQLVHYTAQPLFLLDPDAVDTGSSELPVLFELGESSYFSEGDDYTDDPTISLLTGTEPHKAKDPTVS

Chain of Cytochrome P450 3A4 (P08684 whole entry): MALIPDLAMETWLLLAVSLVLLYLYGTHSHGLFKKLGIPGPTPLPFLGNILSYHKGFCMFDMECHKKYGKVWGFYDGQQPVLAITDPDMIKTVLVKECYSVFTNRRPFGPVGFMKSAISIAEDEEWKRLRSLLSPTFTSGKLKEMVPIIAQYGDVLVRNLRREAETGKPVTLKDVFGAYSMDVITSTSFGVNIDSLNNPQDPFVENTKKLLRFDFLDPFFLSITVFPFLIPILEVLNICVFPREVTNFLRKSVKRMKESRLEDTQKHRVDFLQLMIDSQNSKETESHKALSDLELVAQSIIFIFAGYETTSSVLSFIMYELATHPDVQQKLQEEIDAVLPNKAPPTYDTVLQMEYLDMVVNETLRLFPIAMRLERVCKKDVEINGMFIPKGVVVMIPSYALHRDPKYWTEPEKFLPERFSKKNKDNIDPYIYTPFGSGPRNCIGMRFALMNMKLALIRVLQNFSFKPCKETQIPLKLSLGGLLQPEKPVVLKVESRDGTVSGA
Chain of Glyceraldehyde-3-phosphate dehydrogenase (P04406 whole entry): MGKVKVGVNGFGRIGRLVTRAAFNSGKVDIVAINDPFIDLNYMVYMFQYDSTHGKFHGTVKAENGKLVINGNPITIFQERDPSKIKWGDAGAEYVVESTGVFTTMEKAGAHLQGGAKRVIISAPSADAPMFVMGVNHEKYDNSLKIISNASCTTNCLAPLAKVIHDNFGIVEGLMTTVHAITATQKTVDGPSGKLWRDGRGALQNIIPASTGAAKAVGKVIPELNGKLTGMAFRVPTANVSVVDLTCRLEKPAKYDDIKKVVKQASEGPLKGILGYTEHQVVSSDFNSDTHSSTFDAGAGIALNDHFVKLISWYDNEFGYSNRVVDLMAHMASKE
Chain of Paired box protein Pax-8 (Q06710 whole entry): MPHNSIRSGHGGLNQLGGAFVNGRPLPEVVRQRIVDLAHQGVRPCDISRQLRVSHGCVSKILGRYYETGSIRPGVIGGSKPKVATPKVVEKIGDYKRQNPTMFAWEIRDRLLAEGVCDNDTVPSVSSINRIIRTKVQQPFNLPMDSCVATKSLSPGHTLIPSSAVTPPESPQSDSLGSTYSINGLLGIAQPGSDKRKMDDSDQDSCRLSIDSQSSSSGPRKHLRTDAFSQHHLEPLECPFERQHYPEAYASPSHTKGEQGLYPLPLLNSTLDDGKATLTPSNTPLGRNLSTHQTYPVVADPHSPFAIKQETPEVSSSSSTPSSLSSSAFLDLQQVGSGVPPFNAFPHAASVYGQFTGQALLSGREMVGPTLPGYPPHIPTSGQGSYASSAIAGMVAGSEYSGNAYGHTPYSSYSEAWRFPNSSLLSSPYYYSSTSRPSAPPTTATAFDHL

Structure (SMILES): COc1cccc(S(=O)(=O)Nc2ccncn2)c1
- IC50 [1]: > 100 µM (not active)
- IC50 [2]: > 100 µM (inactive)

Structure (SMILES): CCn1ncc(C2=NOC(C(=O)NCc3ccccc3)C2)c1C (stereo not drawn)
- IC50 [3]: > 80 µM (inactive)

Structure (SMILES): CCn1cc(C(=O)O)c(=O)c2cc(F)c(N3CCN(C(=O)Nc4ccccc4)CC3)cc21
- IC50 [4]: 73.1 µM (inactive)
- CC50 [5]: > 50 µM (active)
- IC50 [6]: 26.9 µM (active)

Structure (SMILES): CSc1nc2ccc(NC(=O)c3cc4ccccc4o3)cc2s1
- IC50 [7]: 0.869 µM (active)
- IC50 [8]: > 100 µM (inactive)
- IC50 [9]: 94.3 µM (active)
- IC50 [10]: 1.41 µM (active)
- IC50 [11]: > 100 µM (inactive)
- IC50 [12]: 0.905 µM (active)
- IC50 [13]: 13.5 µM (active)
- IC50 [14]: 0.896 µM (active)

Structure (SMILES): COc1ccc(CNC(C)(C)C)cc1Cl.Cl
- AC50 [15]: inconclusive

Structure (SMILES): O=C(O)C1C(=O)NCC1c1ccccc1 (stereo not drawn)
- AC50 [16]: 24.3 µM (active)

Structure (SMILES): Cc1nc2scc(-c3ccccc3)c2c(=O)n1/N=C/c1ccco1
- AC50 [16]: 23.4 µM (active)

Structure (SMILES): Cc1c(C(=O)O)nnn1-c1ccc(Cl)cc1
- IC50 [1]: > 100 µM (not active)
- IC50 [2]: > 100 µM (inactive)

Structure (SMILES): COc1cc(C(=O)N2CCN(c3cccc(C)c3C)CC2)cc(OC)c1OC
- EC50 [17]: 20.4 µM (active)
- IC50 [3]: > 80 µM (inactive)
- EC50 [18]: 7.81 µM (inconclusive)
- EC50 [19]: 11.8 µM (inconclusive)
- EC50 [20]: 0.721 µM (active)
- EC50 [21]: 4.12 µM (active)
- EC50 [22]: 0.876 µM (active)

Structure (SMILES): Cc1ccc(-c2cc(C(=O)OCC(=O)N(C)c3c(N)n(Cc4ccccc4)c(=O)[nH]c3=O)c3ccccc3n2)o1
- AC50 [16]: 25.8 µM (active)

Structure (SMILES): C/N=c1\scc(-c2cccs2)n1/N=C/c1ccccc1O
- IC50 [3]: > 80 µM (inactive)
- AC50 [23]: < 0.26 µM (active)
- EC50 [24]: < 0.16 µM (active)

Structure (SMILES): CC(C)NC(=O)N1CCC2(CC1)CCN(C(=O)Oc1ccccc1)CC2
- AC50 [15]: inconclusive

Structure (SMILES): CS(=O)(=O)N1CCC2(CC1)CN(C(c1ccccc1)c1ccccc1)C2
- AC50 [15]: inconclusive

Structure (SMILES): CC1(C)CC(=O)c2cnc(N)nc2C1
- AC50 [15]: inconclusive
